# Measurements reported in patent US6281354A, “Analogs of duocarmycin and cc-1065” (The Scripps Research Institute, priority 1999, dated 2001).
# Where two headings read alike, the source gives them in different places.
# How the values were obtained:
# [1] = In vitro cytotoxic activity; conditions: for cytotoxic activity of seco precursor compared with cyclopropane agent: versus 17-20, 23, 30 and 31, respectively; for cytotoxic potency of the two enantiomers compared: natural versus unnatural enantiomer
# [2] = test system: duplex DNA (w794, w836, c988, c820, c1346); format: biochemical, SV40; conditions: for sequence preference at the alkylation site: consensus alkylation sequence; for concentration at which DNA is alkylated / more efficient DNA alkylation than (+)-N--BOC-DSA: natural enantiomers
# [3] = Chemical/aqueous solvolysis reactivity followed by UV; format: physicochemical; conditions: for solvolysis rate constant κ, pH 3: pH 3, 50% CH3 OH-buffer
# Source text: The solvolysis reactivities of N--BOC-CNA (78) and CNA (79) were followed spectrophotometrically by UV at both pH 3 (50% CH3 OH-buffer, buffer=4:1:20 v/v/v 0.1 M citric acid, 0.2 M Na2 HPO4, H2 O) and pH 7 (50% CH3 OH--H2 O). […] Particularly informative are comparisons of the benzo series of agents that differ only in the C-ring size (i.e., 76-79). Solvolysis reactivity smoothly increases through the series CBI<CBQ<CNA with both the N--BOC derivatives and the free NH derivatives.
# Aqueous Solvolysis of N--BOC-CNA (78) and CNA (79). Samples of 78 (150 μg) and 79 (150 [g) were dissolved in CH3 OH (1.5 mL) and the resulting solutions were mixed with aqueous buffer (pH 3, 1.5 mL, 4:1:20 (v:v:v) 0.1 M citric acid, 0.2 M Na2 HPO4, and deionized H2 O respectively). Similarly, a solution of 78 (150 μg) in CH3 OH (1.5 mL) was mixed with deionized H2 O (pH 7, 1.5 mL). The UV spectra of the solutions were measured immediately after mixing with the appropriate aqueous solution. The blank and the solvolysis reaction solutions were stoppered, protected from light, and allowed to stand at 25° C. The total reaction times reflect those required to observe no further change in absorbance. For the solvolysis of 78 at pH 3, the UV spectrum was taken every 30 s for 10 min and then every 3 min for the next 40 min. The decrease of the absorbance at 319 nm was monitored. […] For the solvolysis of 78 at pH 7, the UV spectrum was monitored every 5 min for 19 h. […] For the solvolysis of 79 at pH 3, the UV spectrum was monitored every 2 min for the first 110 min and then every 10 min for the next 4 h. The decrease in the absorbance at 345 nm was recorded.
# [4] = 50% ch3oh-buffer, pH 3, pH 3, 50% CH3 OH-buffer, 25° C., read-out: solvolysis t1/2, pH 3 (h) (converted)
# [5] = 50% ch3oh-buffer, pH 3, pH 3, 50% CH3 OH-buffer, 25° C., read-out: solvolysis t1/2, pH 3 (min)
smiles,measurement,setting,value
"COC(=O)c1cc2c3c(ccc2[nH]1)N(C(=O)c1cc2c4c(cc(O)c2[nH]1)N(C(=O)c1cc2c5c(ccc2[nH]1)N(C(N)=O)CC5)CC4CCl)CC3 (stereo not drawn) [compound 28, 7-[(Methyl 1,2-Dihydro-(3H-pyrrolo[3,2-e]indole-3-yl)carbonyl-7-carboxy-late)-3-(3-carbamoyl-1,2-dihydro-3H-pyrrolo[3,2-e]indol-7-yl)carbonyl]-1-(chloromethyl)-5-hydroxy-1,2-dihydro-3H-pyrrolo[3,2-e]indole]",cytotoxic activity of seco precursor compared with cyclopropane agent,[1],not distinguishable
COC(=O)c1cc2c3c(ccc2[nH]1)N(C(=O)c1cc2c([nH]1)C(=O)C=C1N(C(=O)c4cc5cc(OC)c(OC)c(OC)c5[nH]4)CC4CC124)CC3 (stereo not drawn) [compound 31],cytotoxic potency compared with typical agents,[1],essentially equipotent with the typical agents
"COC(=O)c1cc2c([nH]1)C(=O)C=C1N(C(=O)OC)CC3CC123 (stereo not drawn) [compound 41, Methyl 2-(Methoxycarbonyl)-1,2,8,8a-tetrahydrocyclopropa[c]pyrrolo[3,2-e]indol-4-one-6-carboxylate]",sequence preference at the alkylation site,[2],5'-AA>5'-TA
same,concentration at which DNA is alkylated,[2],10^-3 M
same,more efficient DNA alkylation than (+)-N--BOC-DSA,[2],approximately 10 ×
same,unnatural enantiomer less effective at DNA alkylation than natural enantiomer,[2],approximately 10 ×
"COC(=O)c1cc2c3c(ccc2[nH]1)N(C(=O)c1cc2c4c(cc(O)c2[nH]1)N(C(=O)c1cc2cc(OC)c(OC)c(OC)c2[nH]1)CC4CCl)CC3 (stereo not drawn) [compound 29, 7-[(Methyl 1,2-Dihydro-3H-pyrrolo[3,2e]indole-3-yl)carbonyl-7-carboxylate]-3-[(5,6,7-trimethoxyindol-2-yl)carbonyl]-1-(chloromethyl)-5-hydroxy-1,2-dihydro-3H-pyrrolo[3,2-e]indole]",cytotoxic activity of seco precursor compared with cyclopropane agent,[1],not distinguishable
COC(=O)c1cc2c([nH]1)C(=O)C=C1N(C(=O)OC(C)(C)C)C[C@@H]3C[C@@]123 [ent-(-)-N--BOC-DSA],AT-rich adenine N3 alkylation selectivity (size of site),[2],2 base-pair
"COC(=O)c1cc2cc(NC(=O)c3cc4cc(NC(=O)c5cc6c([nH]5)C(=O)C=C5N(C(=O)OC(C)(C)C)CC7CC567)ccc4[nH]3)ccc2[nH]1 (stereo not drawn) [compound 18, N-{2-[N-(2-Methoxycarbonyl-1H-indol-5-yl)]carbamoyl-1H-indol-5-yl}-2-(tert-butyloxycarbonyl)-1,2,8,8a-tetrahydrocyclopropa[c]pyrrolo[3,2-e]indol-4-one-6-carboxamide]",AT-rich adenine N3 alkylation selectivity (size of site),[2],5 base-pair
same,comparison of DNA alkylation selectivity,[2],no differences in their DNA alkylation selectivity
same,less efficient at alkylating DNA than DSA-indole2,[2],ca. 100 ×
same,slower DNA alkylation than DSA-indole2,[2],ca. 1000 ×
same,unnatural enantiomer less effective at DNA alkylation than natural enantiomer,[2],approximately 10 ×
same,"cytotoxic potency, effect of terminal N^2 substituent (18, 23, 24 compared)",[1]; natural and unnatural enantiomers,essentially indistinguishable
same,cytotoxic potency compared with simple derivatives N--BOC-DSA (4) and N--Ac-DSA,[1]; natural enantiomers,essentially indistinguishable
"O=C1C=C2NCCC3CC23c2ccccc21 (stereo not drawn) [CBQ, reference compound]","solvolysis reactivity difference, CBI versus CBQ",[3],10 -fold
same,solvolysis reactivity/stability in words or rank order,[3],CBI<CBQ<CNA
COC(=O)c1cc2c([nH]1)C(=O)C=C1N(C(=O)c3cc4c5c(ccc4[nH]3)N(C(=O)c3cc4c6c(ccc4[nH]3)N(C(N)=O)CC6)CC5)CC3CC123 (stereo not drawn) [compound 61],cytotoxic potency of the two enantiomers compared,[1],nearly equipotent
"COc1cc2cc(C(=O)N3CCCC4CC45C3=CC(=O)c3ccccc35)[nH]c2c(OC)c1OC (stereo not drawn) [compound 98, N-[(5,6,7-Trimethoxyindol-2-yl)carbonyl]-1,2,3,4,11,11a-hexahydrocyclopropa-[c]naphtho[2,1-b]azepin-6-one]","more potent cytotoxicity than N--BOC-CNA (78), natural enantiomer",[1]; natural enantiomer,5-10 ×
same,"difference in cytotoxic potency versus N--BOC-CNA, unnatural enantiomer",[1]; unnatural enantiomers,1-2 ×
"COC(=O)c1cc2c([nH]1)C(=O)C=C1N(C(C)=O)CC3CC123 (stereo not drawn) [compound 40, Methyl 2-Acetyl-1,2,8,8a-tetrahydrocyclopropa[c]pyrrolo[3,2-e]indol-4-one-6-carboxylate]",sequence preference at the alkylation site,[2],5'-AA>5'-TA
same,concentration at which DNA is alkylated,[2],10^-3 M
same,more efficient DNA alkylation than (+)-N--BOC-DSA,[2],approximately 10 ×
same,unnatural enantiomer less effective at DNA alkylation than natural enantiomer,[2],approximately 10 ×
"O=C1C=C2NCCCC3CC23c2ccccc21 (stereo not drawn) [compound 79, 1,2,3,4,11,11a-Hexahydrocyclopropa[c]naphtho[2,1-b]azepin-6-one]",more reactive than the corresponding CBI derivative (solvolysis),[3],1500 ×
same,"reactivity difference, CNA versus CBQ",[3],over a hundred-fold difference in reactivity
same,solvolysis reactivity/stability in words or rank order,[3],sufficiently reactive to undergo rapid solvolysis even at pH 7
same,half-life,[3]; [4],0.62 h
same,half-life,[3]; [5],0.617 h
same,solvolysis reactivity/stability in words or rank order,[3]; listed as CNA,CBI<CBQ<CNA
same,solvolysis reactivity/stability in words or rank order,[3]; listed as CNA (79),considerably more stable than N--BOC-CNA (78)
same,"solvolysis rate constant κ, pH 3",[3]; 25° C.,3.10×10^-4 s^-1
"COC(=O)c1cc2c([nH]1)C(=O)C=C1N(C(=O)c3cc4cc(OC)c(OC)c(OC)c4[nH]3)C[C@@H]3C[C@@]123 [ent-(-)-duocarmycin SA, reference compound]",AT-rich adenine N3 alkylation selectivity (size of site),[2],3.5 base-pair
"COC(=O)c1cc2cc(NC(=O)c3cc4cc(NC(=O)c5cc6c7c(cc(O)c6[nH]5)N(C(C)=O)CC7CCl)ccc4[nH]3)ccc2[nH]1 (stereo not drawn) [compound 22, N-{2-[N-(2-Methoxycarbonyl-1H-indol-5-yl)]carbamoyl-1H-indol-5-yl}-3-acetyl-1-(chloromethyl)-5-hydroxy-1,2-dihydro-3H-pyrrolo[3,2-e]indole-7-carboxamide]",cytotoxic activity of seco precursor compared with cyclopropane agent,[1],not distinguishable
"O=C1C=C2NCC3CC23c2ccccc21 (stereo not drawn) [CBI, reference compound]","solvolysis reactivity difference, CBI versus CBQ",[3],10 -fold
same,solvolysis reactivity/stability in words or rank order,[3],CBI<CBQ<CNA
"COC(=O)N1CCCC2CC23C1=CC(=O)c1ccccc13 (stereo not drawn) [compound 97, N-(Methoxycarbonyl)-1,2,3,4,11,11a-hexahydrocyclopropa[c]naphtho[2,1-b]azepin-6-one]",more reactive than N--BOC-DSA (solvolysis),[3],10^3 -10^4 ×
same,half-life,"[3]; 50% methanol-water, pH 7, no added acid catalysis, read-out: solvolysis t1/2, pH 7 (converted)",2.1 h
COC(=O)c1cc2c([nH]1)C(=O)C=C1N(C(=O)OC(C)(C)C)C[C@H]3C[C@]123 [(+)-N--BOC-DSA],AT-rich adenine N3 alkylation selectivity (size of site),[2],2 base-pair
CC(C)(C)OC(=O)N1CCCC2CC23C1=CC(=O)c1ccccc13 (stereo not drawn) [compound 78],more reactive than N--BOC-DSA (solvolysis),[3],10^3 -10^4 ×
same,more reactive than the corresponding CBI derivative (solvolysis),[3],4750 ×
same,solvolysis reactivity/stability in words or rank order,[3],sufficiently reactive to undergo rapid solvolysis even at pH 7
same,half-life,[3]; [4],0.028 h
same,half-life,[3]; [5],0.0283 h
same,half-life,"[3]; 50% ch3oh-h2o, pH 7, pH 7, 50% CH3 OH--H2 O, 25° C., read-out: solvolysis t1/2, pH 7 (converted)",2.1 h
same,half-life,"[3]; 50% methanol-water, pH 7, pH 7, no added acid catalysis, read-out: solvolysis t1/2, pH 7 (converted)",2.1 h
same,solvolysis reactivity/stability in words or rank order,[3]; listed as N--BOC-CNA,between that of N--BOC-CBQ and the exceptionally reactive N--BOC-CI
same,"solvolysis rate constant κ, pH 3",[3]; 25° C.,6.90×10^-3 s^-1
same,"solvolysis rate constant κ, pH 7","[3]; pH 7, 50% CH3 OH--H2 O, 25° C.",9.16×10^-5 s^-1
same,"solvolysis t1/2, pH 7 (h)","[3]; pH 7, no added acid catalysis",2.1 h
"CC(C)(C)OC(=O)N1CCCC2CC23C1=CC(=O)c1ccccc13 (single isomer, unassigned; (+)) [(+)-78]",cytotoxic potency of the two enantiomers compared,[1],more potent activity
COC(=O)c1cc2c([nH]1)C(=O)C=C1N(C(=O)OC(C)(C)C)CC3CC123 (stereo not drawn) [N--BOC-DSA],AT-rich adenine N3 alkylation selectivity (size of site),[2],2 base-pair
same,reaction time required for substantial or complete DNA alkylation,[2]; 25-37° C.,2 to 7 days
same,sequence preference at the alkylation site,[2],5'-AA>5'-TA
